# Test: Cytotoxicity against human KBVIN cells
# Assay type: functional, cell-based
structure (smiles),measurement,value
COc1cc([C@@H]2c3cc4c(cc3[C@@H](O[C@@H]3O[C@@H]5CO[C@@H](C)O[C@H]5[C@H](O)[C@H]3O)[C@H]3COC(=O)[C@H]23)OCO4)cc(OC)c1O [ETOPOSIDE],EC50,8.8 mg/L

# Reference: ChEMBL document CHEMBL2331517, “Songaricalarins A-E, cytotoxic oplopane sesquiterpenes from Ligularia songarica” (J Nat Prod, 2013)
